In US11358969B2, “Indole AHR inhibitors and uses thereof” (Ikena Oncology, Inc., priority 2017, dated 2022):

Assays:
B16-IDO murine melanoma = test: Efficacy study in the mouse melanoma model B16-IDO (Example 1H); type: in vivo; conditions: B16-IDO in C57BL/6 mice, FIG. 4
Procedure: B16-IDO is a murine melanoma carcinoma cell line that has been engineered to overexpress IDO1 (Holmgaard, 2015 Cell Reports). B16-IDO cells were cultured in DMEM supplemented with 10% FBS. 2×10^5 B16-IDO cells in 50 μl PBS were implanted intradermally in 6-8 week old female, C57BL/6 mice. Dosing for the efficacy study starts 7 days post implant: AHR antagonist I-70 was dosed orally, every day (QD) at or 10 mg/kg for 2 weeks. Anti-PD-1 (BioXcell RMP1-14) was administered every 3rd day, intraperitoneally (IP) at 250 μg/mouse for five total doses. Tumors were monitored by caliper measurement every 2-3 days and body weight measured three times per week.

[1] = system: CD3/CD28 activated human T cells; test: T-Cell Study with I-70 (Example 1F); type: cell-based; conditions: human T cells activated with CD3/CD28 tetramer, 24 hours
Procedure: Human T cells were isolated by CD3 negative selection after isolation of PBMCs from blood of human donors via ficoll density gradient centrifugation. One million T cells were activated with 25 uL of CD3/CD28 tetramer (Stemcell) in the presence or absence of I-70 for 24 hours, after which media was removed and stored at −80 C for later cytokine analysis. Cells were then washed 2× with PBS, before isolating RNA according to the manufacturer's instructions for the RNAeasy mini kit (Qiagen).
RNA was converted to cDNA using VILO-IV RT mastermix (Thermofisher), and q-RT-PCR was performed to determine levels of IL-22 (Hs01574154_m1), Cyp1a1 (Hs01054797_g1), and GAPDH (Hs00266705_g1). Data was analyzed using the ddCT method whereby each sample is first normalized to GAPDH housekeeping gene before being normalized to control treatment.
Cytokine levels were determined utilizing the mesoscale discovery (MSD) platform (K15067L-2) and MSD analysis software according to the manufacturer's instructions. IL-22 protein levels are decreased and pro-inflammatory IL-2 protein levels are increased by treatment with I-70, as shown in FIG. 2.

With `Cc1cnn2c(NCCc3c[nH]c4ccccc34)cc(-c3cncc(F)c3)nc12` [I-70, 5-(5-Fluoro-3-pyridyl)-N-[2-(1H-indol-3-yl)ethyl]-3-methyl-pyrazolo[1,5-a]pyrimidin-7-amine] the Tumor growth (B16-IDO murine melanoma; I-70 alone, orally QD 10 mg/kg for 2 weeks) was “inhibited”, the Tumor growth (B16-IDO murine melanoma; I-70 in combination with anti-PD-1 (IP 250 μg/mouse every 3rd day)) was “inhibited” and the IL-22 protein levels ([1]; MSD platform, FIG. 2) was “decreased”. The “pro-inflammatory IL-2 protein levels” value ([1]; MSD platform, FIG. 2) was “increased”, the “IL22 RNA expression levels” value ([1]; q-RT-PCR, FIG. 1) was “inhibited” and the “cyp1a1 RNA expression levels” value ([1]; q-RT-PCR, FIG. 1) was “inhibited”.
